The values below come from patent US20240254107A1, “RNA-TARGETING LIGANDS, COMPOSITIONS THEREOF, AND METHODS OF MAKING AND USING THE SAME” (THE UNIVERSITY OF NORTH CAROLINA AT CHAPEL HILL, priority 2021, published 2024).

One assay deals with TPP riboswitch RNA. The assay can be described thus: Isothermal titration calorimetry (ITC) binding to TPP riboswitch RNA. The note with it: for binding cooperativity with 2: ITC with and without pre-bound 2.
For assay [1], the system named is TPP riboswitch region of the screening construct. The assay can be described thus: SHAPE / SHAPE-MaP fragment screening and replicate hit validation. The note with it: RNA pre-bound to primary fragment, fragment 1 mM, 5NIA reagent. Format: binding. As to the method: Fragments were obtained as a fragment screening library from Maybridge, which was a subset of their Ro3 diversity fragment library and contained 1500 compounds dissolved in DMSO at 50 mM. Most of these compounds adhere to the “rule of three” for fragment compounds; having a molecular mass <300 Da, containing ≤3 hydrogen bond donors and ≤3 hydrogen bond acceptors, and ClogP ≤3.0. All compounds used for ITC, with the exception of those listed in Example 5, were purchased from Millipore-Sigma and used without further purification. Screening experiments were carried out in 25 μL in 96-well plate format on a Tecan Freedom Evo-150 liquid handler equipped with an 8-channel air displacement pipetting arm, disposable filter tips, robotic manipulator arm, and an EchoTherm RIC20 remote controlled heating/cooling dry bath (Torrey Pines Scientific). Liquid handler programs used for screening are available upon request. […]
Once screening of test fragments is complete, statistical tests are carried out to identify differences in modification rates of a given nucleotide. […] That is, if m1 modifications of a tested nucleotide were counted among n1 reads in sample 1 and m2 modifications were counted among n2 reads in sample 2, the tested null hypothesis predicts that among all the counted modifications (m1+m2), the proportion of modifications in sample 1 will be p1=n1/(n1+n2). […]

Where [2] appears, read: Table 4, fragment 5 analogs, pendant groups, ITC, read-out: Kd.
Where [3] appears, read: Table 4, fragment 5 analogs, pendant groups, ITC.
The mark [4] stands for this setting: Table 8, linked analogs, read-out: Kd.

Like-named read-outs stand apart in the source and are kept apart here.

Turning to `Cc1ncc(C[n+]2csc(CCOP(=O)([O-])OP(=O)(O)O)c2C)c(N)n1` [Compound 9, thiamine pyrophosphate, reference compound], the Kd on TPP riboswitch RNA (Table 1, SHAPE-detected fragment hits, ITC, read-out: Kd) came out at 0.028 ± 0.002 µM.
With `COC(=O)c1ccc(Br)nc1` [Compound S5], the Kd at TPP riboswitch RNA (setting [2]) turned out to be 440 µM.
Consider `c1cc2[nH]cnc2cn1` [Compound 6], for which the Kd on TPP riboswitch RNA (Table 3, fragment 5 analogs, pyridine core modifications, ITC, read-out: Kd) is 265 µM.
In the case of `O=C(O)c1csc2ccc(Cl)cc12` [Compound 29], the “binding detected by SHAPE, second-round screen” value in assay [1] is listed as “induced a very robust change in the SHAPE reactivity signal”.
As for `CN(C)C(=O)c1ccc(Cl)nc1` [Compound S18], at TPP riboswitch RNA (setting [3]), the equilibrium dissociation constant (Kd) result is “no binding”.
As to `COC(=O)c1ccc(Oc2ccccc2)nc1` [Compound S10], at TPP riboswitch RNA (setting [3]), the Kd entry is on record as “no binding”.
As for `CCS(=O)(=O)c1ccc(Cl)nc1` [Compound S17], the equilibrium dissociation constant (Kd) result at TPP riboswitch RNA (setting [3]) was “no binding”.
As for `CN(C)CCN(C=O)Cc1ccc2nccnc2c1` [KW-79-1, N-(2-(dimethylamino)ethyl)-N-(quinoxalin-6-ylmethyl)formamide], at TPP riboswitch RNA (setting [4]), the Kd was 69.1 µM.
On to `COC(=O)c1ccc(C(F)(F)F)nc1` [Compound S9], for which the Kd entry at TPP riboswitch RNA (setting [3]) is reported as “no binding”.
Take `COC(=O)c1ccc(C)nc1` [Compound S8]: the Kd at TPP riboswitch RNA (setting [2]) stood at 1100 µM.
Take `O=C(CNc1cnccc1N1CCNCC1)Nc1ccc2nccnc2c1` [KW-29-1, 2-((4-(piperazin-1-yl)pyridin-3-yl)amino)-N-(quinoxalin-6-yl)acetamide]: at TPP riboswitch RNA (setting [4]), the Kd was 10.5 µM.
Turning to `NS(=O)(=O)c1ccc(Cl)nc1` [Compound S16], at TPP riboswitch RNA (setting [2]), the Kd was 1300 µM.
As to `Cc1cnccc1N1CCNCC1` [Compound 32], in the assay with TPP riboswitch RNA, the “binding cooperativity with 2” value was “clear, but modest, binding cooperativity”.
In the case of `COC(=O)c1cnc(Cl)c(Cl)c1` [Compound S11], the Kd on TPP riboswitch RNA (setting [2]) was found to be 820 µM.
Take `CCOc1ccc(C(=O)OC)cn1` [Compound S7]: the Kd at TPP riboswitch RNA (setting [2]) was 1800 µM.
In the case of `COC(=O)c1ccc([N+](=O)[O-])nc1` [Compound S6], the dissociation constant Kd on TPP riboswitch RNA (setting [2]) worked out at 390 µM.
As for `NC(=O)c1ccc(Cl)nc1` [Compound S15], at TPP riboswitch RNA (setting [2]), the Kd was 1800 µM.
On to `Cc1cccc2nccnc12` [Compound 23], for which the Kd on TPP riboswitch RNA (Table 2B, fragment 2 analogs, pendant groups, ITC, read-out: Kd) amounted to 220 µM.
As to `OCc1ccc(Cl)nc1` [Compound S14], on TPP riboswitch RNA (setting [2]), the Kd is 1300 µM.
Regarding `O=C(CNc1ccc2nccnc2c1)NO` [KW-31-1, N-hydroxy-2-(quinoxalin-6-ylamino)acetamide], on TPP riboswitch RNA (setting [4]), the Kd came to 58.1 µM.
On to `CCOC(=O)c1ccc(Cl)nc1` [Compound S13], for which the Kd at TPP riboswitch RNA (setting [2]) worked out at 600 µM.
In the case of `c1cc(N2CCNCC2)ccn1` [Compound 31], in the assay on TPP riboswitch RNA, the “binding cooperativity with 2” value is “clear, but modest, binding cooperativity”.
Consider `COC(=O)c1cnc(Cl)cc1Cl` [Compound S12], for which, at TPP riboswitch RNA (setting [2]), the Kd came out at 93 µM. The “fold higher affinity for the TPP riboswitch than fragment 5” value with TPP riboswitch RNA (relative to fragment 5) was “approximately threefold”.
For the compound `O=C(O)CCC(=O)Nc1ccc2nccnc2c1` [KW-16-1], the Kd at TPP riboswitch RNA (setting [4]) came out at 653 µM.
On to `O=C(CCCC(=O)Nc1ccc2nccnc2c1)NO` [KW-5-1, N^1-hydroxy-N^5-(quinoxalin-6-yl)glutaramide], for which the Kd at TPP riboswitch RNA (setting [4]) worked out at 477 µM.
